Square brackets hold non-standard residues; d marks the D form. Peptide text beside a SMILES is read from it. Phe(2,6-Me2,4-CONH2) = Cc1cc(C(N)=O)cc(C)c1C[C@H](N)C(=O)O; Bip = N[C@@H](Cc1ccc(-c2ccccc2)cc1)C(=O)O; Phe(4-CN) = N#Cc1ccc(C[C@H](N)C(=O)O)cc1; Phe(4-F) = N[C@@H](Cc1ccc(F)cc1)C(=O)O; Dmt = Cc1cc(O)cc(C)c1C[C@H](N)C(=O)O; hPhe = N[C@@H](CCc1ccccc1)C(=O)O; dTic = O=C(O)[C@H]1Cc2ccccc2CN1; β3hF = N[C@H](CC(=O)O)Cc1ccccc1; Nle = CCCC[C@H](N)C(=O)O; dNMeA = CN[C@H](C)C(=O)O; Sar = CNCC(=O)O
Columns and labels:
[1] = molecular target: T1, δ-opioid receptor (DOR) (Homo sapiens, UniProt P41143); experiment: DOR agonist cAMP assay (HitHunter cAMP, forskolin-stimulated); format: cell-based
T1 construct: host or cells: cAMP Hunter CHO-K1 OPRD1 Gαi cell line
Description: (§1) The HitHunter® cAMP chemiluminescent assay kit (DiscoveRx, Cat# 90-0075 SM25) was used to detect cAMP production in cAMP Hunter™ Gαi cell lines over expressing either Human-ORPM1 (Discoverx, Catalog# 95-0107C2) or Human-ORPD1 (DiscoveRx, Catalog# 95-0108C2). Opioid agonist binding to the Gαi receptors inhibits the intracellular cAMP accumulation induced by forskolin, which activates adenylate cyclase and increases intracellular levels of cAMP.
(§2) Cells were cultured in media consisting of Ham's F-12 Nutrient Mix (Life Technologies, Catalog#31765035), 10% FBS (Life Technologies, Catalog# 16140-071), 4 mM GlutaMAX (Life Technologies, Catalog#35050-061), […] (Life Technologies), 100 ug/ml of Penn-Strep (Life Technologies) and 0.5 mg/ml Geneticin (Life Technologies, Catalog# 10131-027). The cultures were maintained at 37° C. under 5% CO2.
(§3) In preparation for cAMP assay, the cells were seeded at a density of 300,000 cells/ml in 100 ul of media/well in 96-well microplate. Wells that were designated for cAMP standards were left empty.
(§4) Opioid agonist serial dilutions were prepared in separate dilution plate (11-point series of 3× (3-fold) dilution) in Cell Assay buffer, including 3× forskolin for Gαi target. For Hunter CHO-K1 OPRM1 or CHO-K1 OPRD1 Gαi Cell Lines, the final forskolin concentration was 20 uM.
(§5) 15 ul of each 3× opioid agonist serial dilution was added in the presence of forskolin in duplicate to the designated wells. The final concentration of each dilution was at 3× of the final screening concentration. The assay plate was incubated for 30 min, at 37° C. under 5% CO2.
(§6) Cellular cAMP concentrations were measured using the HitHunter cAMP Assay kit following the manufacturer's protocol. HitHunter cAMP assay is a gain-of-signal competitive immunoassay based on Enzyme Fragment Complementation (EFC) technology. The kit uses β-galactosidase (β-gal) enzyme split into Enzyme Donor (ED) and Enzyme Acceptor (EA). The cellular cAMP and ED-labelled cAMP compete for anti-cAMP antibody. […] When cellular cAMP level is high, it competes for the anti-cAMP antibody, thereby releasing ED-cAMP to complement with EA to produce a luminescent signal. The amount of signal is directly proportional to the amount of cAMP in cells and can be quantified using cAMP standards. The assay plates were read using a PerkinElmer Envision instrument to detect the chemiluminescence signal in each well (luminescence reader at 0.1 to 1 second/well). Data analysis was performed using Graphpad Prism 7.EC50 was calculated by nonlinear regression, using the four-parameter hill equation.

[2] = molecular target: T2, μ-opioid receptor (MOR) (Homo sapiens, UniProt P35372); experiment: MOR agonist cAMP assay (HitHunter cAMP, forskolin-stimulated); format: cell-based
T2 construct: host or cells: cAMP Hunter CHO-K1 OPRM1 Gαi cell line
Description: as §1, §2, §3, §4, §5, §6

T1 sequence (P41143 whole entry): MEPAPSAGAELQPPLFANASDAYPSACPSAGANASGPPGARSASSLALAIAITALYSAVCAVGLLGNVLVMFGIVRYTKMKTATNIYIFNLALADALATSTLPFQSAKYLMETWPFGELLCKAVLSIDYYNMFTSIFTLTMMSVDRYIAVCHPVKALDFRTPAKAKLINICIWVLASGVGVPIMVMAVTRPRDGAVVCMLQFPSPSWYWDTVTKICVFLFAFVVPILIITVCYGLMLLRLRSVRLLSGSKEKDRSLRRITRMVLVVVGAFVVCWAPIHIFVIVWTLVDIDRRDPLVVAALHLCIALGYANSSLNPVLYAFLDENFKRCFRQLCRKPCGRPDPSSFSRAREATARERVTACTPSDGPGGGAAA
T2 sequence (P35372 whole entry): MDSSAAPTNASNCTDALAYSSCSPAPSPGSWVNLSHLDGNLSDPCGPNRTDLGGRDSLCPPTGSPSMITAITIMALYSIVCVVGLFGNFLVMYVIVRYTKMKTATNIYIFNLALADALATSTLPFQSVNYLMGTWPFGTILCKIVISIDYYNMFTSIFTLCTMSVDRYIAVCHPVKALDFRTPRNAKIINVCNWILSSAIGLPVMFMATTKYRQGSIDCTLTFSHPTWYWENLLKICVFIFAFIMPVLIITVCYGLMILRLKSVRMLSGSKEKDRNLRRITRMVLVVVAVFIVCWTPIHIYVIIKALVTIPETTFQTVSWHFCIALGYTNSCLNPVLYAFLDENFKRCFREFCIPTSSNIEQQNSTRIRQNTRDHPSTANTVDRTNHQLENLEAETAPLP

Structure (SMILES)	EC50 [1] [nM]	EC50 [2] [nM]
Cc1cc(O)cc(C)c1C[C@H](N)C(=O)N[C@H](CCCNC(=N)N)C(=O)N[C@@H](Cc1ccc(-c2ccccc2)cc1)C(=O)N[C@@H](CCCCN)C(N)=O [compound 3] (H-[Dmt][dR][Bip]K-NH2)	> 200	50 to 200
Cc1cc(O)cc(C)c1C[C@H](N)C(=O)N[C@H](CCCNC(=N)N)C(=O)N[C@@H](Cc1c[nH]cn1)C(=O)N[C@@H](CCCCN)C(N)=O [compound 4] (H-[Dmt][dR]HK-NH2)	> 200	10 to 50
Cc1cc(O)cc(C)c1C[C@H](N)C(=O)N[C@H](CCCNC(=N)N)C(=O)N[C@@H](Cc1ccccc1)C(=O)N(C)[C@@H](CCCCN)C(N)=O [compound 5]	> 200	< 1
Cc1cc(O)cc(C)c1C[C@H](N)C(=O)N[C@H](CCCNC(=N)N)C(=O)N[C@@H](Cc1ccccc1)C(=O)N(C)CC(N)=O [compound 9] (H-[Dmt][dR]F[Sar]-NH2)	1 to 10	< 1
Cc1cc(O)cc(C)c1C[C@H](N)C(=O)N(C)[C@H](C)C(=O)N[C@@H](Cc1ccccc1)C(=O)N(C)CC(N)=O [compound 10] (H-[Dmt][dNMeA]F[Sar]-NH2)	1 to 10	< 1
Cc1cc(O)cc(C)c1C[C@H](N)C(=O)N[C@H](CCCNC(=N)N)C(=O)N[C@@H](CCc1ccccc1)C(=O)N(C)CCC(=O)O [compound 12]	< 1	< 1
Cc1cc(O)cc(C)c1C[C@H](N)C(=O)N[C@H](CCCNC(=N)N)C(=O)N[C@@H](Cc1ccc(F)cc1)C(=O)N(C)CC(N)=O [compound 19] (H-[Dmt][dR][Phe(4-F)][Sar]-NH2)	1 to 10	< 1
Cc1cc(O)cc(C)c1C[C@H](N)C(=O)N[C@H](CCCNC(=N)N)C(=O)N[C@@H](Cc1ccc(C#N)cc1)C(=O)N(C)CC(N)=O [compound 20] (H-[Dmt][dR][Phe(4-CN)][Sar]-NH2)	< 1	1 to 10
Cc1cc(O)cc(C)c1C[C@H](N)C(=O)N1Cc2ccccc2C[C@@H]1C(=O)N[C@@H](Cc1ccccc1)C(=O)N(C)CC(N)=O [compound 44] (H-[Dmt][dTic]F[Sar]-NH2)	1 to 10	< 1
Cc1cc(O)cc(C)c1C[C@H](N)C(=O)N1Cc2ccccc2C[C@@H]1C(=O)NCC(=O)N[C@@H](Cc1ccccc1)C(=O)N(C)CC(N)=O [compound 45] (H-[Dmt][dTic]GF[Sar]-NH2)	< 1	< 1
Cc1cc(O)cc(C)c1C[C@H](N)C(=O)N[C@H](C)C(=O)N[C@@H](CCc1ccccc1)C(=O)N(C)CC(N)=O [compound 46] (H-[Dmt][dA][hPhe][Sar]-NH2)	< 1	< 1
CCCC[C@H](NC(=O)[C@H](CCc1ccccc1)NC(=O)[C@@H](C)NC(=O)[C@@H](N)Cc1c(C)cc(O)cc1C)C(N)=O [compound 48] (H-[Dmt][dA][hPhe][Nle]-NH2)	< 1	< 1
CCCC[C@H](NC(=O)[C@H](CCc1ccccc1)NC(=O)CNC(=O)[C@@H](C)NC(=O)[C@@H](N)Cc1c(C)cc(O)cc1C)C(N)=O [compound 49]		< 1
CC(=O)Nc1ccc(C[C@H](N)C(=O)N[C@H](C)C(=O)NCC(=O)N[C@H](CC(=O)N(C)CC(N)=O)Cc2ccccc2)cc1 [compound 59]	50 to 200	10 to 50
C[C@@H](NC(=O)[C@@H](N)Cc1ccc(C(N)=O)cc1)C(=O)NCC(=O)N[C@H](CC(=O)N(C)CC(N)=O)Cc1ccccc1 [compound 60]	1 to 10	1 to 10
C[C@@H](NC(=O)[C@@H](N)Cc1c[nH]c2ccc(O)cc12)C(=O)NCC(=O)N[C@H](CC(=O)N(C)CC(N)=O)Cc1ccccc1 [compound 63]	50 to 200	50 to 200
Cc1cc(O)cc(C)c1C[C@H](N)C(=O)N[C@H](C)C(=O)N[C@@H](CC(C)C)C(=O)N[C@H](CC(=O)N(C)CC(N)=O)Cc1ccccc1 [compound 67] (H-[Dmt][dA]L[β3hF][Sar]-NH2)	10 to 50	< 1
CC[C@H](C)[C@H](NC(=O)[C@@H](C)NC(=O)[C@@H](N)Cc1c(C)cc(O)cc1C)C(=O)N[C@H](CC(=O)N(C)CC(N)=O)Cc1ccccc1 [compound 68] (H-[Dmt][dA]I[β3hF][Sar]-NH2)	10 to 50	< 1

Structure (SMILES)	EC50 [1] [nM]	EC50 [2] [nM]
Cc1cc(C(N)=O)cc(C)c1C[C@H](N)C(=O)NCC(=O)NCC(=O)N[C@H](CC(=O)N(C)CC(N)=O)Cc1ccccc1 [compound 74] (H-[Phe(2,6-Me2,4-CONH2)]GG[β3hF][Sar]-NH2)	< 1	< 1
Cc1cc(C(N)=O)cc(C)c1C[C@H](N)C(=O)NC(C)(C)C(=O)NCC(=O)N[C@H](CC(=O)N(C)CC(N)=O)Cc1ccccc1 [compound 75]	10 to 50	< 1
Cc1cc(C(N)=O)cc(C)c1C[C@H](N)C(=O)N[C@@H](C)C(=O)NCC(=O)N[C@H](CC(=O)N(C)CC(=O)O)Cc1ccccc1 [compound 80]	50 to 200	1 to 10
C[C@@H](NC(=O)[C@@H](N)Cc1ccc(C(=O)O)cc1)C(=O)NCC(=O)N[C@H](CC(=O)N(C)CC(N)=O)Cc1ccccc1 [compound 89]	50 to 200	50 to 200
Cc1cc(O)cc(C)c1C[C@H](N)C(=O)NC(C)(C)C(=O)NCC(=O)N[C@H](CC(=O)N(C)CC(N)=O)Cc1ccccc1 [compound 90]	1 to 10	< 1
Cc1cc(C(N)=O)cc(C)c1C[C@H](N)C(=O)N[C@H](C)C(=O)NCC(=O)N[C@H](CC(=O)NCC(N)=O)Cc1ccccc1 [compound 94]	1 to 10	< 1
CC[C@H](C)[C@@H](C(=O)O)N(C)C(=O)C[C@H](Cc1ccccc1)NC(=O)CNC(=O)[C@@H](C)NC(=O)[C@@H](N)Cc1c(C)cc(C(N)=O)cc1C [compound 95]	1 to 10	< 1
CCC[C@@H](C(=O)O)N(C)C(=O)C[C@H](Cc1ccccc1)NC(=O)CNC(=O)[C@@H](C)NC(=O)[C@@H](N)Cc1c(C)cc(C(N)=O)cc1C [compound 97]	< 1	< 1
Cc1cc(C(N)=O)cc(C)c1C[C@H](N)C(=O)N[C@H](C)C(=O)NCC(=O)N[C@H](CC(=O)N(C)[C@@H](CC1CCCCC1)C(=O)O)Cc1ccccc1 [compound 98]	1 to 10	1 to 10
Cc1cc(C(N)=O)cc(C)c1C[C@H](N)C(=O)N[C@H](C)C(=O)NCC(=O)N[C@H](CC(=O)N(C)[C@@H](Cc1ccccc1)C(=O)O)Cc1ccccc1 [compound 100]	1 to 10	1 to 10
Cc1cc(C(N)=O)cc(C)c1C[C@H](N)C(=O)N1Cc2ccccc2C[C@H]1C(=O)NCC(=O)N[C@H](CC(=O)N(C)CC(N)=O)Cc1ccccc1 [compound 103]	50 to 200	50 to 200
Cc1cc(O)cc(C)c1C[C@H](N)C(=O)N1Cc2ccccc2C[C@H]1C(=O)NCC(=O)N[C@H](CC(=O)N(C)CC(N)=O)Cc1ccccc1 [compound 104]	50 to 200	50 to 200
Cc1cc(C(N)=O)cc(C)c1C[C@H](N)C(=O)N[C@H](C)C(=O)NCC(=O)N[C@H](CC(=O)N(C)[C@@H](Cc1c[nH]c2ccccc12)C(=O)O)Cc1ccccc1 [compound 106]	1 to 10	1 to 10
Cc1cc(C(N)=O)cc(C)c1C[C@H](N)C(=O)N[C@H](C)C(=O)NCC(=O)N1Cc2ccccc2C[C@H]1C(=O)N(C)CC(N)=O [compound 108]	10 to 50	1 to 10
CC[C@H](C)[C@@H](C(=O)O)N(C)C(=O)C[C@H](Cc1ccccc1)NC(=O)CNC(=O)[C@@H](C)NC(=O)[C@@H](N)Cc1c(C)cc(O)cc1C [compound 113]	< 1	< 1
Cc1cc(O)cc(C)c1C[C@H](N)C(=O)N[C@H](C)C(=O)NCC(=O)N[C@H](CC(=O)N[C@@H](Cc1ccc2ccccc2c1)C(N)=O)Cc1ccccc1 [compound 114]	1 to 10	1 to 10
CCCC[C@@H](C(=O)O)N(C)C(=O)[C@@H](Cc1ccccc1)N(C)C(=O)CNC(=O)[C@@H](C)NC(=O)[C@@H](N)Cc1c(C)cc(O)cc1C [compound 154]		< 1
CCCC[C@@H](C(=O)O)N(C)C(=O)C[C@H](Cc1ccccc1C)NC(=O)CNC(=O)[C@@H](C)NC(=O)[C@@H](N)Cc1c(C)cc(C(N)=O)cc1C [compound 163]	1 to 10	
